Results reported in PubChem BioAssay AID1845195 (Molecular Pharmacology Branch, DTP, NCI, 2023).

System: 156681-154-R-J1 tumor spheroid viability
Test: Anticancer human tumor 156681-154-R-J1 patient-derived melanoma cell line growth inhibition
Settings: spheroids with HUVEC and MSC; for IC50: curve of first compound; for viability, T/C: stronger effect = lower value
How it was run: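 Single agents and combinations were tested on spheroids built from tumor cells plus HUVEC and hMSC, at half-log dilutions starting at or near clinical Cmax, else 10 microM; final DMSO 0.25% (v/v).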
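Further: spheroids exposed to compounds for 7 days before readout.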
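Wherever viability, T/C is given: percent of vehicle control viability where 100% = DMSO-treated spheroids.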

With O=C(c1cc(Cc2n[nH]c(=O)c3ccccc23)ccc1F)N1CCN(C(=O)C2CC2)CC1 + Cn1nnc2c(C(N)=O)ncn2c1=O the IC50 (second compound 1 µM) was over 30 µM, the IC50 (second compound 3.16 µM) was 18.2 µM and the IC50 (second compound 10 µM) was 14.7 µM. It also gave an IC50 (second compound 31.6 µM) of 1.2 µM, an IC50 (second compound 100 µM) of under 0.0949 µM and a viability, T/C (second compound 1 µM, first compound 0.0949 µM) of 92.1%. For the same compound, the viability, T/C (second compound 1 µM, first compound 0.3 µM) was 74.6%, the viability, T/C (second compound 1 µM, first compound 0.949 µM) was 97.5% and the viability, T/C (second compound 1 µM, first compound 3 µM) was 80.2%. For the same compound, the viability, T/C (second compound 1 µM, first compound 9.49 µM) was 66.5%, the viability, T/C (second compound 1 µM, first compound 30 µM) was 50.3% and the viability, T/C (second compound 3.16 µM, first compound 0.0949 µM) was 81.1%. The viability, T/C (second compound 3.16 µM, first compound 0.3 µM) was 86.4%, the viability, T/C (second compound 3.16 µM, first compound 0.949 µM) was 78.3% and the viability, T/C (second compound 3.16 µM, first compound 3 µM) was 74.2%. The viability, T/C (second compound 3.16 µM, first compound 9.49 µM) was 52.1%, the viability, T/C (second compound 3.16 µM, first compound 30 µM) was 48.3% and the viability, T/C (second compound 10 µM, first compound 0.0949 µM) was 85.2%. For the same compound, the viability, T/C (second compound 10 µM, first compound 0.3 µM) was 81.3%, the viability, T/C (second compound 10 µM, first compound 0.949 µM) was 70.5% and the viability, T/C (second compound 10 µM, first compound 3 µM) was 68.5%. It also gave a viability, T/C (second compound 10 µM, first compound 9.49 µM) of 55.6%, a viability, T/C (second compound 10 µM, first compound 30 µM) of 40.9% and a viability, T/C (second compound 31.6 µM, first compound 0.0949 µM) of 69%. For the same compound, the viability, T/C (second compound 31.6 µM, first compound 0.3 µM) was 63.3%, the viability, T/C (second compound 31.6 µM, first compound 0.949 µM) was 48.4% and the viability, T/C (second compound 31.6 µM, first compound 3 µM) was 44.5%. The viability, T/C (second compound 31.6 µM, first compound 9.49 µM) was 35.6%, the viability, T/C (second compound 31.6 µM, first compound 30 µM) was 27.4% and the viability, T/C (second compound 100 µM, first compound 0.0949 µM) was 36.8%. The viability, T/C (second compound 100 µM, first compound 0.3 µM) was 34.4%, the viability, T/C (second compound 100 µM, first compound 0.949 µM) was 27.4% and the viability, T/C (second compound 100 µM, first compound 3 µM) was 22.6%. It also gave a viability, T/C (second compound 100 µM, first compound 9.49 µM) of 15.1% and a viability, T/C (second compound 100 µM, first compound 30 µM) of 21.6%.
[2H]c1nc(C)nc([2H])c1-c1cc(NC[C@@H](C)c2cccc3c(C(=O)NC)ccnc23)ncn1 + COc1cc2c(cc1O)CCNC21CSC2c3c(OC(C)=O)c(C)c4c(c3C(COC1=O)N1C(O)C3Cc5cc(C)c(OC)c(O)c5C(C21)N3C)OCO4 gave an IC50 (second compound 30 pM) of over 10 µM, an IC50 (second compound 94.9 pM) of over 10 µM and an IC50 (second compound 0.0003 µM) of over 10 µM. For the same compound, the IC50 (second compound 0.000949 µM) was under 0.0316 µM, the IC50 (second compound 0.003 µM) was under 0.0316 µM and the viability, T/C (second compound 30 pM, first compound 0.0316 µM) was 91.3%. The viability, T/C (second compound 30 pM, first compound 0.1 µM) was 96%, the viability, T/C (second compound 30 pM, first compound 0.316 µM) was 109% and the viability, T/C (second compound 30 pM, first compound 1 µM) was 95.1%. The viability, T/C (second compound 30 pM, first compound 3.16 µM) was 92.3%, the viability, T/C (second compound 30 pM, first compound 10 µM) was 94% and the viability, T/C (second compound 94.9 pM, first compound 0.0316 µM) was 89.6%. The viability, T/C (second compound 94.9 pM, first compound 0.1 µM) was 111%, the viability, T/C (second compound 94.9 pM, first compound 0.316 µM) was 105% and the viability, T/C (second compound 94.9 pM, first compound 1 µM) was 85%. The viability, T/C (second compound 94.9 pM, first compound 3.16 µM) was 90.4%, the viability, T/C (second compound 94.9 pM, first compound 10 µM) was 76.8% and the viability, T/C (second compound 0.0003 µM, first compound 0.0316 µM) was 79.7%. It also gave a viability, T/C (second compound 0.0003 µM, first compound 0.1 µM) of 86.6%, a viability, T/C (second compound 0.0003 µM, first compound 0.316 µM) of 80% and a viability, T/C (second compound 0.0003 µM, first compound 1 µM) of 75.3%. The viability, T/C (second compound 0.0003 µM, first compound 3.16 µM) was 81.9%, the viability, T/C (second compound 0.0003 µM, first compound 10 µM) was 62.4% and the viability, T/C (second compound 0.000949 µM, first compound 0.0316 µM) was 6.44%. It also gave a viability, T/C (second compound 0.000949 µM, first compound 0.1 µM) of 4.98%, a viability, T/C (second compound 0.000949 µM, first compound 0.316 µM) of 4.24% and a viability, T/C (second compound 0.000949 µM, first compound 1 µM) of 4.33%. For the same compound, the viability, T/C (second compound 0.000949 µM, first compound 3.16 µM) was 3.62%, the viability, T/C (second compound 0.000949 µM, first compound 10 µM) was 3.23% and the viability, T/C (second compound 0.003 µM, first compound 0.0316 µM) was 0.26%. It also gave a viability, T/C (second compound 0.003 µM, first compound 0.1 µM) of 0.3%, a viability, T/C (second compound 0.003 µM, first compound 0.316 µM) of 0.22% and a viability, T/C (second compound 0.003 µM, first compound 1 µM) of 0.17%. The viability, T/C (second compound 0.003 µM, first compound 3.16 µM) was 0.17% and the viability, T/C (second compound 0.003 µM, first compound 10 µM) was 0.28%.
